Experimental data as given in paper PMC7456477, “Pharmacokinetic Study of Thirteen Ingredients after the Oral Administration of Flos Chrysanthemi Extract in Rats by UPLC-MS/MS” (BioMed Research International, 2020).

Experiments:
[1] = Pharmacokinetic study in rat plasma after oral administration of Flos Chrysanthemi extract (UPLC-MS/MS); assay type: in vivo, Sprague-Dawley rats; conditions: rats, oral Flos Chrysanthemi extract 10 g/kg; for Detection in plasma over the sampling time: result in words; for AUC(0-inf) / Cmax / Tmax / half-life / AUC / k el: male, Sprague-Dawley, rat, plasma, n = 6; for AUC: read-out: AUC(0 − tn); for k el: read-out: Ke (converted)
Experimental: Six male Sprague-Dawley rats (250 ± 5 g) were purchased from Huafukang Bioscience Co., Inc. (Beijing, China). The rats were adapted to the facility for a week. Before the experiments, rats were fasted for 12 h, although drinking water was readily accessible. Flos Chrysanthemi extract was dissolved in CMC-Na aqueous solution and orally administered to the animals once at 10 g/kg. Blood samples (220 μL) were taken from the orbital venous plexus of rats at 0, 0.03, 0.08, 0.17, 0.25, 0.5, 1, 2, 4, 6, 8, 10, 12, and 24 h after extract administration. Blood samples were promptly centrifuged at 6000 rpm for 10 min, and plasma samples were collected. The obtained plasma was stored at -80°C until analysis. “Drug and Statistics 3.0” software (Medical College of Wannan, China) was used to calculate pharmacokinetic parameters. The animal protocol was approved by the Animal Ethics Committee of Tianjin University of Traditional Chinese Medicine (TCM-LAEC20190056).
Plasma samples from rats orally administered with Flos Chrysanthemi extract (10.0 g/kg) were analysed with UPLC-MS/MS. Plasma concentration-time curves are shown in Figure 3, and the primary pharmacokinetic parameters of each analyte are summarized in Table 6.

[2] = Stability of analytes in rat plasma (QC samples under four storage conditions); assay type: in vitro ADME; conditions: n = 6
Experimental: To study the stability of all compounds in rat plasma, low, medium, and high concentrations of QC samples were tested under the following test conditions: stored at an autosampler for 12 hours, stored at room temperature for 6 hours, put through three freeze/thaw cycles, and stored at -80°C for 14 days. Three QC concentrations were tested for each of the above conditions.
The stability of all 13 analytes during sample collection and processing was evaluated with the various storage conditions being tested on spiked plasma samples at three QC concentrations.

[3] = spiked concentration 1000 ng/mL
[4] = spiked concentration 4000 ng/mL

| Compound | Detection in plasma over the sampling time [1] | Measured concentration, -80°C for 14 days ([2]; spiked concentration 5 ng/mL) | Measured concentration, Autosampler for 12 h ([2]; spiked concentration 5 ng/mL) | Measured concentration, Room temperature for 6 h ([2]; spiked concentration 5 ng/mL) | Measured concentration, Three freeze-thaw cycles ([2]; spiked concentration 5 ng/mL) | Measured concentration, -80°C for 14 days ([2]; spiked concentration 50 ng/mL) | Measured concentration, Autosampler for 12 h ([2]; spiked concentration 50 ng/mL) | Measured concentration, Room temperature for 6 h ([2]; spiked concentration 50 ng/mL) | Measured concentration, Three freeze-thaw cycles ([2]; spiked concentration 50 ng/mL) | Measured concentration, -80°C for 14 days [2, 3] | Measured concentration, Autosampler for 12 h [2, 3] | Measured concentration, Three freeze-thaw cycles [2, 3] | AUC(0-inf) [1] | Cmax [1] | Tmax [1] | half-life [1] | AUC [1] | k el [1] | further results |
| --- | --- | --- | --- | --- | --- | --- | --- | --- | --- | --- | --- | --- | --- | --- | --- | --- | --- | --- | --- |
| O=c1c(O[C@@H]2O[C@H](CO)[C@H](O)[C@H](O)[C@H]2O)c(-c2ccc(O)c(O)c2)oc2cc(O)cc(O)c12 [Hyperoside] | detected only at the first few blood sampling points | 4.8 ± 0.2 ng/mL | 3.9 ± 0.1 ng/mL | 4.4 ± 0.1 ng/mL | 5.7 ± 0.1 ng/mL | 50.3 ± 1.8 ng/mL | 41.8 ± 1.4 ng/mL | 48.7 ± 1.9 ng/mL | 54.5 ± 2.1 ng/mL | 997.8 ± 19.4 ng/mL | 803.4 ± 2.5 ng/mL | 1110.2 ± 4.5 ng/mL | – | – | – | – | – | – | – |
| Isoquercitrin | detected only at the first few blood sampling points | 4.5 ± 0.1 ng/mL | 4.0 ± 0.2 ng/mL | 4.7 ± 0.2 ng/mL | 5.6 ± 0.1 ng/mL | 50.7 ± 2.1 ng/mL | 41.6 ± 0.5 ng/mL | 49.0 ± 1.2 ng/mL | 54.5 ± 0.8 ng/mL | 1006.3 ± 30.5 ng/mL | – | 1110.5 ± 21.8 ng/mL | – | – | – | – | – | – | – |
| O=C(/C=C/c1ccc(O)c(O)c1)O[C@H]1[C@H](O)C[C@](O)(C(=O)O)C[C@H]1O [Cryptochlorogenic acid] | – | 5.2 ± 0.2 ng/mL | 5.0 ± 0.2 ng/mL | 5.3 ± 0.1 ng/mL | 5.9 ± 0.1 ng/mL | 46.7 ± 1.4 ng/mL | 44.5 ± 1.3 ng/mL | 49.1 ± 1.5 ng/mL | 54.1 ± 0.3 ng/mL | 1075.7 ± 52.9 ng/mL | 1069.3 ± 16.2 ng/mL | 1122.8 ± 6.8 ng/mL | 431 ± 197 ng·h/mL | 89.4 ± 45.3 ng/mL | 0.61 ± 0.33 h | 414 ± 204 min | 319 ± 97.3 ng·h/mL | 3.33e-05 s⁻¹ | Measured concentration, Room temperature for 6 h [2, 3]: 1012.9 ± 11.1 ng/mL |
| O=c1cc(-c2ccc(O)c(O)c2)oc2cc(O[C@@H]3O[C@H](CO)[C@@H](O)[C@H](O)[C@H]3O)cc(O)c12 [Cynaroside] | – | – | – | – | – | – | – | – | – | – | – | – | 19100 ± 20000 ng·h/mL | 2550 ± 1120 ng/mL | 6.38 ± 3.8 h | 301 ± 266 min | 19100 ± 19900 ng·h/mL | 7.78e-05 s⁻¹ | Measured concentration, -80°C for 14 days ([2]; spiked concentration 20 ng/mL): 21.1 ± 0.8 ng/mL; Measured concentration, Autosampler for 12 h ([2]; spiked concentration 20 ng/mL): 20.0 ± 0.2 ng/mL; Measured concentration, Room temperature for 6 h ([2]; spiked concentration 20 ng/mL): 20.6 ± 0.9 ng/mL; Measured concentration, Three freeze-thaw cycles ([2]; spiked concentration 20 ng/mL): 22.6 ± 1.0 ng/mL; Measured concentration, -80°C for 14 days ([2]; spiked concentration 200 ng/mL): 205.0 ± 4.0 ng/mL; Measured concentration, Autosampler for 12 h ([2]; spiked concentration 200 ng/mL): 203.4 ± 6.1 ng/mL; Measured concentration, Room temperature for 6 h ([2]; spiked concentration 200 ng/mL): 182.4 ± 0.6 ng/mL; Measured concentration, Three freeze-thaw cycles ([2]; spiked concentration 200 ng/mL): 219.8 ± 1.0 ng/mL; Measured concentration, -80°C for 14 days [2, 4]: 4060.3 ± 121.9 ng/mL; Measured concentration, Autosampler for 12 h [2, 4]: 4158.6 ± 15.3 ng/mL; Measured concentration, Room temperature for 6 h [2, 4]: 4360.1 ± 32.4 ng/mL; Measured concentration, Three freeze-thaw cycles [2, 4]: 4152.9 ± 34.1 ng/mL |
